The values below come from US12102648B2, “Orally-bioavailable nucleoside analogs” (priority 2021, dated 2024).

Where two headings read alike, the source gives them in different places.

This series in a line: in vitro. Conditions: human. Format: in vitro ADME. In a few lines: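 Caco-2 monolayers cultured 19 days on inserts (TEER >600 […]); bidirectional A-to-B and B-to-A transport at 37° C over 90 min, samples quantified by LC/MS/MS. Papp, efflux ratio and recovery calculated; ER >2 flags potential efflux substrates.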
[1] abbreviates: Caco-2 monolayer, apical to basolateral, 90-minute incubation, read-out: Papp, A-B.
Where [2] appears, read: Caco-2 monolayer, basolateral to apical, 90-minute incubation, read-out: Papp, B-A.
Where [3] appears, read: Caco-2 monolayer, ER>2 indicates potential efflux transporter substrate, read-out: ER (efflux ratio).

`CNc1nc(NC(=O)Cc2ccccc2)nc2c1ncn2[C@@H]1O[C@H](COC(C)=O)[C@@H](O)[C@@]1(C)F` [Compound 334, ((2R,3R,4R,5R)-4-fluoro-3-hydroxy-4-methyl-5-(6-(methylamino)-2-(2-phenylacetamido)-9H-purin-9-yl)tetrahydrofuran-2-yl)methyl acetate]: the apical-to-basolateral permeability (Papp A→B) at 90 min under setting [1] turned out to be 0.76 ×10⁻⁶ cm/s. In addition, the basolateral-to-apical permeability (Papp B→A) at 90 min under setting [2] is 19 ×10⁻⁶ cm/s. Under setting [3], the efflux ratio at 90 min was determined as 25.
In the case of `CCCCC(=O)Nc1ncnn2c([C@]3(C#N)O[C@H](CO)[C@@H](OC(=O)Cc4ccccc4)[C@H]3O)ccc12` [Compound 340, (2R,3S,4R,5R)-5-cyano-4-hydroxy-2-(hydroxymethyl)-5-(4-pentanamidopyrrolo[2,1-f][1,2,4]triazin-7-yl)tetrahydrofuran-3-yl 2-phenylacetate], the Papp A→B at 90 min under setting [1] was 0.64 ×10⁻⁶ cm/s. The apparent permeability from basolateral to apical (Papp B→A) at 90 min under setting [2] was found to be 0.23 ×10⁻⁶ cm/s. Moreover, the efflux ratio at 90 min under setting [3] was found to be 0.35.
For the compound `CCCCC(=O)Nc1ncnn2c([C@]3(C#N)O[C@H](COC(=O)[C@@H](N)C(C)C)[C@@H](O)[C@H]3O)ccc12` [Compound 341, ((2R,3S,4R,5R)-5-cyano-3,4-dihydroxy-5-(4-pentanamidopyrrolo[2,1-f][1,2,4]triazin-7-yl)tetrahydrofuran-2-yl)methyl L-valinate], where the note is “Caco-2”, the apical-to-basolateral permeability (Papp A→B) at 90 min is 0.13 ×10⁻⁶ cm/s, the apparent permeability from basolateral to apical (Papp B→A) at 90 min turned out to be 2.3 ×10⁻⁶ cm/s and the efflux ratio at 90 min is 18.
With `N#C[C@@]1(c2ccc3c(NC(=O)c4ccccc4)ncnn23)O[C@H](CO)[C@@H](OC(=O)CC2CCCCC2)[C@H]1O` [Compound 342, (2R,3S,4R,5R)-5-(4-benzamidopyrrolo[2,1-f][1,2,4]triazin-7-yl)-5-cyano-4-hydroxy-2-(hydroxymethyl)tetrahydrofuran-3-yl 2-cyclohexylacetate], under “Caco-2”, the Papp A→B at 90 min came out at 1.1 ×10⁻⁶ cm/s, the Papp B→A at 90 min was determined as 0.39 ×10⁻⁶ cm/s and the efflux ratio at 90 min came out at 0.34.
As to `CC(=O)O[C@@H]1[C@H](OC(=O)[C@@H](N)C(C)C)[C@@H](COC(=O)Cc2ccccc2)O[C@@]1(C#N)c1ccc2c(N)ncnn12` [Compound 343, (2R,3R,4R,5R)-4-acetoxy-5-(4-aminopyrrolo[2,1-f][1,2,4]triazin-7-yl)-5-cyano-2-((2-phenylacetoxy)methyl)tetrahydrofuran-3-yl L-valinate], the Papp A→B at 90 min under setting [1] turned out to be 1.2 ×10⁻⁶ cm/s. Also, under setting [2], the apparent permeability from basolateral to apical (Papp B→A) at 90 min was 6.5 ×10⁻⁶ cm/s. For the same compound, under setting [3], the efflux ratio at 90 min was found to be 5.6.
With `CC(=O)Nc1ncnn2c([C@]3(C#N)O[C@H](COC(=O)Cc4ccccc4)[C@@H](OC(=O)[C@@H](N)C(C)C)[C@H]3O)ccc12` [Compound 344, (2R,3S,4R,5R)-5-(4-acetamidopyrrolo[2,1-f][1,2,4]triazin-7-yl)-5-cyano-4-hydroxy-2-((2-phenylacetoxy)methyl)tetrahydrofuran-3-yl L-valinate], the Papp A→B at 90 min under setting [1] came out at 0.8 ×10⁻⁶ cm/s. In addition, under setting [2], the Papp B→A at 90 min came out at 9.7 ×10⁻⁶ cm/s. The efflux ratio at 90 min under setting [3] was 12.
On to `N#C[C@@]1(c2ccc3c(NC(=O)[C@@H](N)Cc4ccc(F)cc4)ncnn23)O[C@H](CO)[C@@H](OC(=O)CC2(N)CCCCC2)[C@H]1O` [Compound 345, (2R,3S,4R,5R)-5-(4-((S)-2-amino-3-(4-fluorophenyl)propanamido)pyrrolo[2,1-f][1,2,4]triazin-7-yl)-5-cyano-4-hydroxy-2-(hydroxymethyl)tetrahydrofuran-3-yl 2-(1-aminocyclohexyl)acetate], for which, where the note is “Caco-2”, the Papp A→B at 90 min is 0.09 ×10⁻⁶ cm/s, the Papp B→A at 90 min turned out to be 3.9 ×10⁻⁶ cm/s and the efflux ratio at 90 min stood at 43.
With `CCCC(=O)Nc1ncnn2c([C@]3(C#N)O[C@H](COC(=O)Cc4ccccc4)[C@@H](OC(=O)[C@@H](N)C(C)C)[C@H]3O)ccc12` [Compound 346, (2R,3S,4R,5R)-5-(4-butyramidopyrrolo[2,1-f][1,2,4]triazin-7-yl)-5-cyano-4-hydroxy-2-((2-phenylacetoxy)methyl)tetrahydrofuran-3-yl L-valinate], the Papp A→B at 90 min under setting [1] was 1.6 ×10⁻⁶ cm/s. The Papp B→A at 90 min under setting [2] is 9 ×10⁻⁶ cm/s. In addition, the efflux ratio at 90 min under setting [3] came to 5.7.
As to `CC(C)C(=O)Nc1ncnn2c([C@]3(C#N)O[C@H](COC(=O)Cc4ccccc4)[C@@H](OC(=O)[C@@H](N)C(C)C)[C@H]3O)ccc12` [Compound 347, (2R,3S,4R,5R)-5-cyano-4-hydroxy-5-(4-isobutyramidopyrrolo[2,1-f][1,2,4]triazin-7-yl)-2-((2-phenylacetoxy)methyl)tetrahydrofuran-3-yl L-valinate], the Papp A→B at 90 min under setting [1] was 7 ×10⁻⁶ cm/s. Further, the apparent permeability from basolateral to apical (Papp B→A) at 90 min under setting [2] amounted to 17 ×10⁻⁶ cm/s. Also, the efflux ratio at 90 min under setting [3] was determined as 2.4.
Regarding `CC(=O)Nc1ncnn2c([C@]3(C#N)O[C@H](COC(=O)CC4CCCCC4)[C@@H](OC(=O)[C@@H](N)C(C)C)[C@H]3O)ccc12` [Compound 348, (2R,3S,4R,5R)-5-(4-acetamidopyrrolo[2,1-f][1,2,4]triazin-7-yl)-5-cyano-2-((2-cyclohexylacetoxy)methyl)-4-hydroxytetrahydrofuran-3-yl L-valinate], under “Caco-2”, the Papp A→B at 90 min is 0.43 ×10⁻⁶ cm/s, the Papp B→A at 90 min stood at 13 ×10⁻⁶ cm/s and the efflux ratio at 90 min amounted to 30.
In the case of `CC(C)C(=O)Nc1ncnn2c([C@]3(C#N)O[C@H](COC(=O)CC4CCCCC4)[C@@H](OC(=O)[C@@H](N)C(C)C)[C@H]3O)ccc12` [Compound 349, (2R,3S,4R,5R)-5-cyano-2-((2-cyclohexylacetoxy)methyl)-4-hydroxy-5-(4-isobutyramidopyrrolo[2,1-f][1,2,4]triazin-7-yl)tetrahydrofuran-3-yl L-valinate], where the note is “Caco-2”, the Papp A→B at 90 min is 1.9 ×10⁻⁶ cm/s, the Papp B→A at 90 min was determined as 10 ×10⁻⁶ cm/s and the efflux ratio at 90 min was 5.6.
For `CCCC(=O)Nc1ncnn2c([C@]3(C#N)O[C@H](COC(=O)CC4CCCCC4)[C@@H](OC(=O)[C@@H](N)C(C)C)[C@H]3O)ccc12` [Compound 350, (2R,3S,4R,5R)-5-(4-butyramidopyrrolo[2,1-f][1,2,4]triazin-7-yl)-5-cyano-2-((2-cyclohexylacetoxy)methyl)-4-hydroxytetrahydrofuran-3-yl L-valinate], where the note is “Caco-2”, the apparent permeability from apical to basolateral (Papp A→B) at 90 min was determined as 1.9 ×10⁻⁶ cm/s, the basolateral-to-apical permeability (Papp B→A) at 90 min was 6.9 ×10⁻⁶ cm/s and the efflux ratio at 90 min came to 4.3.
With `CC(C)[C@H](N)C(=O)O[C@H]1[C@@H](OC(=O)[C@@H](N)C(C)C)[C@](C#N)(c2ccc3c(N)ncnn23)O[C@@H]1COC(=O)Cc1ccccc1` [Compound 351, (2R,3R,4R,5R)-2-(4-aminopyrrolo[2,1-f][1,2,4]triazin-7-yl)-2-cyano-5-((2-phenylacetoxy)methyl)tetrahydrofuran-3,4-diyl (2S,2'S)-bis(2-amino-3-methylbutanoate)], the Papp A→B at 90 min under setting [1] worked out at 0.17 ×10⁻⁶ cm/s. Moreover, the Papp B→A at 90 min under setting [2] was determined as 0.92 ×10⁻⁶ cm/s. Besides, the efflux ratio at 90 min under setting [3] worked out at 5.5.
Consider `N#C[C@@]1(c2ccc3c(NC(=O)[C@@H](N)Cc4ccc(F)cc4)ncnn23)O[C@H](COC(=O)CC2(N)CCCCC2)[C@@H](O)[C@H]1O` [Compound 352, ((2R,3S,4R,5R)-5-(4-((S)-2-amino-3-(4-fluorophenyl)propanamido)pyrrolo[2,1-f][1,2,4]triazin-7-yl)-5-cyano-3,4-dihydroxytetrahydrofuran-2-yl)methyl 2-(1-aminocyclohexyl)acetate], for which, for the setting “Caco-2”, the apical-to-basolateral permeability (Papp A→B) at 90 min was found to be 0.25 ×10⁻⁶ cm/s, the apparent permeability from basolateral to apical (Papp B→A) at 90 min was 1.4 ×10⁻⁶ cm/s and the efflux ratio at 90 min stood at 5.7.

One may read the Papp A→B as the apparent permeability from the apical to the basolateral side of a cell layer. The term Papp B→A denotes how fast a substance crosses the layer from the basolateral side.
